In patent US20250333371A1, “COMPOUNDS” (PSYLO PTY LTD, priority 2022, published 2025):

Target: T1, 5-HT2B (Homo sapiens, UniProt P41595)
T1 construct: host or cells: CHO-K1
Assay: FLIPR Ca2+ flux functional assay, 5-HT2B receptor (stably transfected CHO-K1)
Format: cell-based
Method: Activity at 5-HT2A, 5-HT2B and 5-HT2C receptors was determined using a FLIPR Ca^2+ flux assay at WuXi AppTec Co. Ltd. (Hong Kong) Discovery Biology Unit according to their standard protocols. Briefly, stably transfected cells expressing the receptor of interest (HEK293 for 5-HT2A and 5-HT2C; CHO-K1 for 5-HT2B) were grown and plated in a 384 well plate and incubated at 37° C. and 5% CO2 overnight. A 250 mM stock solution of probenecid in FLIPR calcium assay buffer (10 mL) was freshly prepared and combined with a fluorescent dye (Fluo-4 Direct) to give a final assay concentration of 2.5 mM. Reference compounds were 4-fold serially diluted and the screening compounds were 3-fold serially diluted in 100% DMSO for 10 points using Agilent Bravo, and 750 nL was added to a 384 well compound plate using Echo along with 30 μL assay buffer. The fluorescent dye was then added to the assay plate along with assay buffer to a final volume of 40 μL. The cell plate was incubated for 50 min at 37° C. and 5% CO2 and placed into the FLIPR Tetra along with the compound plate. 10 μL of references and compounds were then transferred from the compound plate into the cell plate and the fluorescent signal was read.

T1 sequence (P41595 whole entry): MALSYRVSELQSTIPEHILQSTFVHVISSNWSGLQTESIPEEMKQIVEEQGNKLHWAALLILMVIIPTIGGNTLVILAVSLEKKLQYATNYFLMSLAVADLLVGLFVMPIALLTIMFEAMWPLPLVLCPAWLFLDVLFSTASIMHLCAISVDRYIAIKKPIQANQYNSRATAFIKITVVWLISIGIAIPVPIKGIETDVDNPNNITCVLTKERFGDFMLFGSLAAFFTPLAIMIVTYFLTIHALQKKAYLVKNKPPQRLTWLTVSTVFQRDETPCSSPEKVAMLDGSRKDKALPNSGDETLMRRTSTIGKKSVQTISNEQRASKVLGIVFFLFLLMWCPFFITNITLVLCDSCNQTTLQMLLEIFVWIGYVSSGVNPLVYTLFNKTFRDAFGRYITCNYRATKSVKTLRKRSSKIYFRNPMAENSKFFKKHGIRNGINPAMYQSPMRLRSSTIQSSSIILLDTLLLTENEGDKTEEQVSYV

COc1ccc2cccc(CCN(C)C(C)C)c2c1 [Example I-7, N-(2-(7-methoxynaphthalen-1-yl)ethyl)-N-methylpropan-2-amine]
EC50: > 10 µM
Emax (agonist activity, Ca2+ flux, CHO-K1): 36%
